Tests used:
Assay type in all cases: in vivo
Conditions in all cases: for Germinative energy: day 3; for Germinative capacity / Number of lateral roots / Sprout height / Taproot length: day 7
[1] = test system: cucumber seeds (“Nezhinsky” variety); test: Laboratory tests of DMOA and DEOA for cucumber seeds
Description: (§1) After that DMOA and DEOA were dissolved in dimethyl sulfoxide to give solutions of 10 g/L concentration, then water was added to give aqueous solutions of DMOA with concentrations of 5.5·10^−5 M, 5.5·10^−6 M, 5.5·10^−7 M, 5.5·10^−8 M, 5.5·10^−9 M and DEOA with concentrations of 4.8·10^−5 M, 4.8·10^−6 M, 4.8·10^−7 M, 4.8·10^−8 M, 4.8·10^−9 M.
(§2) The obtained aqueous solutions of DMOA and DEOA were tested in the Scientific Center of Soil-Ecological Reasearch of the Federal State-Funded Educational Institution of Higher Education “Russian State Agrarian University—Moscow Agricultural Academy named after K. A. Timiryazev” (Moscow, 2015) according to the method described by T. A. Sergeeva (Method of laboratory testing of herbicides, Plant protection, 1963, No. 2, pp. 42-43). The primary laboratory screening of DMOA and DEOA was carried out on the seeds of five different crops: sunflower of “Voronezh 638” variety, soybean of “Vilana” variety, alfalfa of “Vega” variety, cucumber of “Nezhinsky” variety and tomato of “Volgogradets” variety.
(§3) Water was used as a reference.
(§4) A single experiment was carried out in a Petri dish. A circle of filter paper was laid at the bottom of the dish and treated with 5 ml of the work solution selected for the experiment. After that 25 seeds were uniformly laid on the surface of the treated filter paper. The Petri dish was kept at a temperature of 21-23° C. with illumination by fluorescent lamps for 7 days. The fourfold replication of the experiment within a single variant was applied.
(§5) The experiment identified the number and percentage of normally germinated seeds on day 3 (germinative energy) and on day 7 (germinative capacity) after the beginning of the experiment. On day 7 the main biometric parameters were also measured: sprout height (mm), taproot length (mm) and number of lateral roots (pcs).
(§6) The results were processed with the method of variance analysis with the help of STRAZ software in order to get the LSD0.05 (least significant difference between the test results on 5% significance level).

[2] = test system: soybean seeds (“Vilana” variety); test: Laboratory tests of DMOA and DEOA for soybean seeds
Description: as §1, §2, §3, §4, §5, §6

[3] = test system: tomato seeds (“Volgogradets” variety); test: Laboratory tests of DMOA and DEOA for tomato seeds
Description: as §1, §2, §3, §4, §5, §6

[4] = test system: sunflower seeds (“Voronezh 638” variety); test: Laboratory tests of DMOA and DEOA for sunflower seeds
Description: as §1, §2, §3, §4, §5, §6

CCOC(=O)C=C([O-])C(=O)OCC.[Na+] [DEOA, sodium salt of diethyl ester of oxaloacetic acid]
Germinative energy ([1]; 4.8 · 10^−5 M): 84%
Germinative capacity ([1]; 4.8 · 10^−5 M): 88%
Number of lateral roots ([1]; 4.8 · 10^−5 M): 14.3 pcs.
Sprout height ([1]; 4.8 · 10^−5 M): 27.8 ↑↑ mm
Taproot length ([1]; 4.8 · 10^−5 M): 83.7 mm
Germinative energy ([1]; 4.8 · 10^−6 M): 80%
Germinative capacity ([1]; 4.8 · 10^−6 M): 85%
Number of lateral roots ([1]; 4.8 · 10^−6 M): 14.4 pcs.
Sprout height ([1]; 4.8 · 10^−6 M): 22.2 mm
Taproot length ([1]; 4.8 · 10^−6 M): 88.3 ↑ mm
Germinative energy ([1]; 4.8 · 10^−7 M): 84%
Germinative capacity ([1]; 4.8 · 10^−7 M): 88%
Number of lateral roots ([1]; 4.8 · 10^−7 M): 15.5 ↑ pcs.
Sprout height ([1]; 4.8 · 10^−7 M): 22.3 mm
Taproot length ([1]; 4.8 · 10^−7 M): 89.3 ↑ mm
Germinative energy ([1]; 4.8 · 10^−8 M): 88%
Germinative capacity ([1]; 4.8 · 10^−8 M): 95%
Number of lateral roots ([1]; 4.8 · 10^−8 M): 12.4 pcs.
Sprout height ([1]; 4.8 · 10^−8 M): 19.3 mm
Taproot length ([1]; 4.8 · 10^−8 M): 79.8 mm
Germinative energy ([1]; 4.8 · 10^−9 M): 91%
Germinative capacity ([1]; 4.8 · 10^−9 M): 93%
Number of lateral roots ([1]; 4.8 · 10^−9 M): 13.7 pcs.
Sprout height ([1]; 4.8 · 10^−9 M): 21.6 mm
Taproot length ([1]; 4.8 · 10^−9 M): 93.8 ↑↑ mm
Germinative energy ([2]; 4.8 · 10^−5 M): 87 ↑ %
Germinative capacity ([2]; 4.8 · 10^−5 M): 93%
Number of lateral roots ([2]; 4.8 · 10^−5 M): 0.3 pcs.
Sprout height ([2]; 4.8 · 10^−5 M): 15.3 mm
Taproot length ([2]; 4.8 · 10^−5 M): 45.3 ↑ mm
Germinative energy ([2]; 4.8 · 10^−6 M): 75%
Germinative capacity ([2]; 4.8 · 10^−6 M): 87%
Number of lateral roots ([2]; 4.8 · 10^−6 M): 0.6 pcs.
Sprout height ([2]; 4.8 · 10^−6 M): 19.0 ↑ mm
Taproot length ([2]; 4.8 · 10^−6 M): 37.7 mm
Germinative energy ([2]; 4.8 · 10^−7 M): 72%
Germinative capacity ([2]; 4.8 · 10^−7 M): 90%
Number of lateral roots ([2]; 4.8 · 10^−7 M): 0.3 pcs.
Sprout height ([2]; 4.8 · 10^−7 M): 14.7 mm
Taproot length ([2]; 4.8 · 10^−7 M): 36.2 mm
Germinative energy ([2]; 4.8 · 10^−8 M): 73%
Germinative capacity ([2]; 4.8 · 10^−8 M): 93%
Number of lateral roots ([2]; 4.8 · 10^−8 M): 0.4 pcs.
Sprout height ([2]; 4.8 · 10^−8 M): 14.3 mm
Taproot length ([2]; 4.8 · 10^−8 M): 33.6 mm
Germinative energy ([2]; 4.8 · 10^−9 M): 80%
Germinative capacity ([2]; 4.8 · 10^−9 M): 99 ↑ %
Number of lateral roots ([2]; 4.8 · 10^−9 M): 1.2 ↑↑ pcs.
Sprout height ([2]; 4.8 · 10^−9 M): 17.1 mm
Taproot length ([2]; 4.8 · 10^−9 M): 46.5 ↑ mm
Germinative energy ([3]; 4.8 · 10^−5 M): 93%
Germinative capacity ([3]; 4.8 · 10^−5 M): 95%
Number of lateral roots ([3]; 4.8 · 10^−5 M): 0.5 ↑ pcs.
Sprout height ([3]; 4.8 · 10^−5 M): 25.3 mm
Taproot length ([3]; 4.8 · 10^−5 M): 80.1 mm
Germinative energy ([3]; 4.8 · 10^−6 M): 75%
Germinative capacity ([3]; 4.8 · 10^−6 M): 80%
Number of lateral roots ([3]; 4.8 · 10^−6 M): 0.2 pcs.
Sprout height ([3]; 4.8 · 10^−6 M): 25.7 mm
Taproot length ([3]; 4.8 · 10^−6 M): 77.7 mm
Germinative energy ([3]; 4.8 · 10^−7 M): 88%
Germinative capacity ([3]; 4.8 · 10^−7 M): 91%
Number of lateral roots ([3]; 4.8 · 10^−7 M): 0.4 pcs.
Sprout height ([3]; 4.8 · 10^−7 M): 26.3 mm
Taproot length ([3]; 4.8 · 10^−7 M): 84.6 ↑ mm
Germinative energy ([3]; 4.8 · 10^−8 M): 74%
Germinative capacity ([3]; 4.8 · 10^−8 M): 76%
Number of lateral roots ([3]; 4.8 · 10^−8 M): 0.2 pcs.
Sprout height ([3]; 4.8 · 10^−8 M): 22.7 mm
Taproot length ([3]; 4.8 · 10^−8 M): 77.9 mm
Germinative energy ([3]; 4.8 · 10^−9 M): 82%
Germinative capacity ([3]; 4.8 · 10^−9 M): 89%
Number of lateral roots ([3]; 4.8 · 10^−9 M): 0.4 pcs.
Sprout height ([3]; 4.8 · 10^−9 M): 21.3 ↓ mm
Taproot length ([3]; 4.8 · 10^−9 M): 77.9 mm
Germinative energy ([4]; 4.8 · 10^−5 M): 87%
Germinative capacity ([4]; 4.8 · 10^−5 M): 93%
Number of lateral roots ([4]; 4.8 · 10^−5 M): 9.6 pcs.
Sprout height ([4]; 4.8 · 10^−5 M): 40.1 ↑↑↑↑↑ mm
Taproot length ([4]; 4.8 · 10^−5 M): 38.4 mm
Germinative energy ([4]; 4.8 · 10^−6 M): 80%
Germinative capacity ([4]; 4.8 · 10^−6 M): 90%
Number of lateral roots ([4]; 4.8 · 10^−6 M): 8.9 pcs.
Sprout height ([4]; 4.8 · 10^−6 M): 29.7 ↑↑ mm
Taproot length ([4]; 4.8 · 10^−6 M): 44.0 mm
Germinative energy ([4]; 4.8 · 10^−7 M): 93 ↑ %
Germinative capacity ([4]; 4.8 · 10^−7 M): 93%
Number of lateral roots ([4]; 4.8 · 10^−7 M): 6.9 pcs.
Sprout height ([4]; 4.8 · 10^−7 M): 29.2 ↑↑ mm
Taproot length ([4]; 4.8 · 10^−7 M): 37.0 mm
Germinative energy ([4]; 4.8 · 10^−8 M): 97 ↑ %
Germinative capacity ([4]; 4.8 · 10^−8 M): 99 ↑ %
Number of lateral roots ([4]; 4.8 · 10^−8 M): 11.2 ↑ pcs.
Sprout height ([4]; 4.8 · 10^−8 M): 27.7 ↑ mm
Taproot length ([4]; 4.8 · 10^−8 M): 56.3 ↑↑ mm
Germinative energy ([4]; 4.8 · 10^−9 M): 81%
Germinative capacity ([4]; 4.8 · 10^−9 M): 87%
Number of lateral roots ([4]; 4.8 · 10^−9 M): 9.5 pcs.
Sprout height ([4]; 4.8 · 10^−9 M): 30.5 ↑↑ mm
Taproot length ([4]; 4.8 · 10^−9 M): 38.3 mm

From US20190119193A1, “COMPOSITION FOR REGULATING PLANT GROWTH, METHOD FOR TREATING PLANTS THEREWITH, AND ACTIVE INGREDIENT THEREOF” (Ivan Aleksandrovich Starikov, priority 2016, published 2019)
